Reference: patent publication US20160009693A1, “HERBICIDAL COMPOUNDS” (SYNGENTA LIMITED, priority 2013, published 2016)

Tests used:
Assay type in all cases: in vivo
Details in all cases: applied at 1000 g/h, evaluated after 13 days
Solanum nigrum (SOLNI) [1] = experiment: Herbicidal glasshouse test, post-emergence, SOLNI
[2] = tested on: Echinochloa crus-galli (ECHCG); experiment: Herbicidal glasshouse test, post-emergence, ECHCG
In short: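 In this post-emergence glasshouse test, barnyard grass (ECHCG) was cultivated for 8 days under controlled conditions (24/16° C. day/night, 14 hours light, 65% humidity). It was then sprayed with an aqueous solution of the technical compound in acetone / water (50:50) with 0.5% Tween 20. Plants were kept under the same conditions and watered twice daily. After 13 days, percentage damage was rated on a five point scale (5=80-100%; 1=0-19%).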

[3] = tested on: Amaranthus retoflexus (AMARE); experiment: Herbicidal glasshouse test, post-emergence, AMARE
In short: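 This post-emergence glasshouse test used AMARE plants raised in standard soil for 8 days under controlled conditions (24/16° C. day/night, 14 hours light, 65% humidity). Foliage was sprayed with formulated compound in acetone/water (50:50) containing 0.5% Tween 20. Plants were then watered twice daily, and after 13 days percentage damage was rated on a five point scale.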

[4] = tested on: Ipomoea hederacea (IPOHE); experiment: Herbicidal glasshouse test, pre-emergence, IPOHE
[5] = tested on: Amaranthus retoflexus (AMARE); experiment: Herbicidal glasshouse test, pre-emergence, AMARE
In short: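 This pre-emergence glasshouse herbicide test used Amaranthus retoflexus sown in standard soil. After one day of cultivation, an aqueous spray made from the technical ingredient in 50:50 acetone/water with 0.5% Tween 20 was applied. Pots stayed at 24/16° C., 14 hours light, 65% humidity, with twice-daily watering. Damage was rated on a five point scale (1=0-19% up to 5=80-100%).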

Solanum nigrum (SOLNI) [6] = experiment: Herbicidal glasshouse test, pre-emergence, SOLNI
In short: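 This pre-emergence glasshouse herbicide test used Solanum nigrum sown in standard soil. One day after sowing, pots were sprayed with the compound in acetone/water (50:50) with 0.5% Tween 20. They were then grown at 24/16° C., with 14 hours light and 65% humidity, and watered twice daily. Percentage damage was scored after 13 days on a five point scale, where 5=80-100% and 1=0-19%.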

[7] = tested on: Alopecurus myosuroides (ALOMY); experiment: Herbicidal glasshouse test, post-emergence, ALOMY
Setaria faberi (SETFA) [8] = experiment: Herbicidal glasshouse test, pre-emergence, SETFA
[9] = tested on: Alopecurus myosuroides (ALOMY); experiment: Herbicidal glasshouse test, pre-emergence, ALOMY
[10] = tested on: Echinochloa crus-galli (ECHCG); experiment: Herbicidal glasshouse test, pre-emergence, ECHCG
In short: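 In this pre-emergence glasshouse test, ECHCG seeds sown in pots of standard soil were sprayed one day after sowing with the test material in acetone/water (50:50) containing 0.5% Tween 20. Plants were kept at 24/16° C., 14 hours light, 65% humidity, and watered twice daily. Percentage damage was rated after 13 days on a 1–5 scale.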

Setaria faberi (SETFA) [11] = experiment: Herbicidal glasshouse test, post-emergence, SETFA
In short: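 This post-emergence glasshouse herbicide test used potted Setaria faberi. Plants were cultivated for 8 days under controlled conditions (24/16° C. day/night, 14 hours light, 65% humidity) and then treated with an aqueous spray made from an acetone/water (50:50) solution containing 0.5% Tween 20. After 13 days of further growth with twice-daily watering, damage was rated on a five point scale (5=80-100%; 1=0-19%).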

[12] = tested on: Ipomoea hederacea (IPOHE); experiment: Herbicidal glasshouse test, post-emergence, IPOHE

| SMILES | POST Application SOLNI, percentage damage (five point scale) (Solanum nigrum (SOLNI) [1]) | POST Application ECHCG, percentage damage (five point scale) [2] | POST Application AMARE, percentage damage (five point scale) [3] | PRE Application IPOHE, percentage damage (five point scale) [4] | PRE Application AMARE, percentage damage (five point scale) [5] | PRE Application SOLNI, percentage damage (five point scale) (Solanum nigrum (SOLNI) [6]) | POST Application ALOMY, percentage damage (five point scale) [7] | PRE Application SETFA, percentage damage (five point scale) (Setaria faberi (SETFA) [8]) | PRE Application ALOMY, percentage damage (five point scale) [9] | PRE Application ECHCG, percentage damage (five point scale) [10] | POST Application SETFA, percentage damage (five point scale) (Setaria faberi (SETFA) [11]) | POST Application IPOHE, percentage damage (five point scale) [12] |
| --- | --- | --- | --- | --- | --- | --- | --- | --- | --- | --- | --- | --- |
| Cn1nnnc1NC(=O)c1nn(C)c(=O)n(Cc2ccccc2Br)c1=O [Compound 1.082] | 5 (5=80-100%) | 5 (5=80-100%) | 5 (5=80-100%) | 5 (5=80-100%) | 5 (5=80-100%) | 5 (5=80-100%) | 5 (5=80-100%) | 3 (3=40-59%) | 5 (5=80-100%) | 5 (5=80-100%) | 2 (2=20-39%) | 5 (5=80-100%) |
| COc1ccc(F)c(Cn2c(=O)c(C(=O)Nc3nnnn3C)nn(C)c2=O)c1Cl [Compound 1.077] | 4 (4=60-79%) | 4 (4=60-79%) | 3 (3=40-59%) | 4 (4=60-79%) | 3 (3=40-59%) | 4 (4=60-79%) | 4 (4=60-79%) | 2 (2=20-39%) | 4 (4=60-79%) | 4 (4=60-79%) | 2 (2=20-39%) | 4 (4=60-79%) |
| Cn1nnnc1NC(=O)c1nn(C)c(=O)n(-c2cccc(F)c2)c1=O [Compound 1.017] | 5 (5=80-100%) | 5 (5=80-100%) | 5 (5=80-100%) | 5 (5=80-100%) | 5 (5=80-100%) | 5 (5=80-100%) | 5 (5=80-100%) | 5 (5=80-100%) | 5 (5=80-100%) | 5 (5=80-100%) | 5 (5=80-100%) | 5 (5=80-100%) |
| CSc1ccc(-n2c(=O)c(C(=O)Nc3nnnn3C)nn(C)c2=O)cc1 [Compound 1.009] | 5 (5=80-100%) | 5 (5=80-100%) | 5 (5=80-100%) | 4 (4=60-79%) | 5 (5=80-100%) | 5 (5=80-100%) | 5 (5=80-100%) | 1 (1=0-19%) | 2 (2=20-39%) | 2 (2=20-39%) | 5 (5=80-100%) | 5 (5=80-100%) |
| Cn1nnnc1NC(=O)c1nn(C)c(=O)n(Cc2ccc(F)cc2F)c1=O [Compound 1.055] | 5 (5=80-100%) | 4 (4=60-79%) | 5 (5=80-100%) | 5 (5=80-100%) | 5 (5=80-100%) | 5 (5=80-100%) | 5 (5=80-100%) | 1 (1=0-19%) | 5 (5=80-100%) | 5 (5=80-100%) | 1 (1=0-19%) | 5 (5=80-100%) |
| Cn1ncnc1NC(=O)c1nn(C)c(=O)n(-c2cccc(F)c2F)c1=O [Compound 5.002] | 5 (5=80-100%) | 5 (5=80-100%) | 5 (5=80-100%) | 5 (5=80-100%) | 5 (5=80-100%) | 5 (5=80-100%) | 5 (5=80-100%) | 2 (2=20-39%) | 3 (3=40-59%) | 3 (3=40-59%) | 5 (5=80-100%) | 5 (5=80-100%) |
| Cn1nnnc1NC(=O)c1nn(C)c(=O)n(Cc2ccccc2C(F)(F)F)c1=O [Compound 1.062] | 5 (5=80-100%) | 5 (5=80-100%) | 5 (5=80-100%) | 5 (5=80-100%) | 5 (5=80-100%) | 5 (5=80-100%) | 5 (5=80-100%) | 5 (5=80-100%) | 5 (5=80-100%) | 5 (5=80-100%) | 5 (5=80-100%) | 5 (5=80-100%) |
| Cn1nnnc1NC(=O)c1nn(C)c(=O)n(Cc2cccc(C(F)F)c2)c1=O [Compound 1.079] | 5 (5=80-100%) | 5 (5=80-100%) | 5 (5=80-100%) | 4 (4=60-79%) | 5 (5=80-100%) | 5 (5=80-100%) | 4 (4=60-79%) | 1 (1=0-19%) | 5 (5=80-100%) | 5 (5=80-100%) | 2 (2=20-39%) | 5 (5=80-100%) |
| Cn1nnnc1NC(=O)c1nn(C)c(=O)n(-c2cccc(Br)c2)c1=O [Compound 1.033] | 5 (5=80-100%) | 5 (5=80-100%) | 5 (5=80-100%) | 5 (5=80-100%) | 5 (5=80-100%) | 5 (5=80-100%) | 5 (5=80-100%) | 5 (5=80-100%) | 5 (5=80-100%) | 5 (5=80-100%) | 5 (5=80-100%) | 5 (5=80-100%) |
| CCCCn1c(=O)c(C(=O)Nc2nnnn2C)nn(C)c1=O [Compound 1.001] | 5 (5=80-100%) | 5 (5=80-100%) | 5 (5=80-100%) | 5 (5=80-100%) | 5 (5=80-100%) | 5 (5=80-100%) | 5 (5=80-100%) | 5 (5=80-100%) | 5 (5=80-100%) | 5 (5=80-100%) | 5 (5=80-100%) | 5 (5=80-100%) |
